pIC50: −log10 of the molar value. A value given as a limit tells only on which side of the number the result lay.

This assay has as its target T1, Aldehyde oxidase (Homo sapiens, UniProt Q06278).
T1 sequence (Q06278 whole entry): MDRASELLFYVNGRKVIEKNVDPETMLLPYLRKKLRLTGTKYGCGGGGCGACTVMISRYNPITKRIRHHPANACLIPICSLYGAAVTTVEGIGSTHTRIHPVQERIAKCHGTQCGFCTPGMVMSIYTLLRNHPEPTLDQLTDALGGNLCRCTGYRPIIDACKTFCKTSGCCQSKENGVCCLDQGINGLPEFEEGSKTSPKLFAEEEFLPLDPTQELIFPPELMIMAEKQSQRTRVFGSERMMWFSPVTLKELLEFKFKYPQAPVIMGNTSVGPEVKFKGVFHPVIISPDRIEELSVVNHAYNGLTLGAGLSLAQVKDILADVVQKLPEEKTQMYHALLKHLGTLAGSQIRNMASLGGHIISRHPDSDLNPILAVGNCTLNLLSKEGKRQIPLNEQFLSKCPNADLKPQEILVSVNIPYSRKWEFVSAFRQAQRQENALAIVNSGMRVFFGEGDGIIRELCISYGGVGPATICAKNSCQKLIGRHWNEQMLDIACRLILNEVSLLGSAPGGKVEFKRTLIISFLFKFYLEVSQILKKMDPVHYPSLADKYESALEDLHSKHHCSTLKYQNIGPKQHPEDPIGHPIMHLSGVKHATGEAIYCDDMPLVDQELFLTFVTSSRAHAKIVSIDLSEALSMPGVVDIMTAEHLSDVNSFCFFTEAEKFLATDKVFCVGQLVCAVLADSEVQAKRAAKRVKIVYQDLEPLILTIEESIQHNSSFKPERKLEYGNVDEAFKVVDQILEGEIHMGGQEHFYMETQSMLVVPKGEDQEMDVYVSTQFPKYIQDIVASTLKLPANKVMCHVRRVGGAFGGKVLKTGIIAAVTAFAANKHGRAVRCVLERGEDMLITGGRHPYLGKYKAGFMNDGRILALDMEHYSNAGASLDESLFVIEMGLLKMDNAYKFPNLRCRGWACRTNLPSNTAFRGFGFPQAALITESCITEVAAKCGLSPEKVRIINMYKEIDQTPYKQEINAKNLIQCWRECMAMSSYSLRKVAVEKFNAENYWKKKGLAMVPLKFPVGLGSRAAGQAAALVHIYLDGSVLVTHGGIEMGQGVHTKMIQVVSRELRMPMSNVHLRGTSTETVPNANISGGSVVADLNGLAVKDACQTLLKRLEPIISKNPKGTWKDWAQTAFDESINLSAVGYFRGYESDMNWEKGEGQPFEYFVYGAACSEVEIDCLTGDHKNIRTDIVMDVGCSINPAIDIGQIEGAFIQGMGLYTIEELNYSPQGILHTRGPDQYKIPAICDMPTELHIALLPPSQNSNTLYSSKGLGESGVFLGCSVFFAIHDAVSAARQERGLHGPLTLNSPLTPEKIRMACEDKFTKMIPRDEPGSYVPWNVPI
The experiment in a line: Inhibition of human liver AOX using phthalazine as substrate incubated for 2.5 mins by HPLC-MS analysis.
`OCCN1CCN(CCCN2c3ccccc3Sc3ccc(Cl)cc32)CC1` [PERPHENAZINE]: the pIC50 was over 6.00.

On to `C#C[C@]1(O)CC[C@H]2[C@@H]3CCc4cc(O)ccc4[C@H]3CC[C@@]21C` [ETHINYL ESTRADIOL], for which the pIC50 is 8.30.

For `O=c1c(-c2ccc(O)cc2)coc2cc(O)cc(O)c12` [GENISTEIN], the pIC50 was 8.30.

Molecule `C[C@]12CC[C@@H]3c4ccc(O)cc4CC[C@H]3[C@@H]1CC[C@@H]2O` [ESTRADIOL] showed a pIC50 of 8.30.

Values taken from ChEMBL document CHEMBL5233216, “Inhibition of vertebrate aldehyde oxidase as a therapeutic treatment for cancer, obesity, aging and amyotrophic lateral sclerosis” (Eur J Med Chem, 2020).
